# Experimental data as given in patent US9249194B2 (priority 2009, dated 2016).
# Assays:
# Assay type in all cases: cell-based
# [1] = system: SH-SY5Y human neuroblastoma cells
# [2] = system: SH-SY5Y human neuroblastoma cells; remark: listed apart in the source
# [3] = system: SH-SY5Y human neuroblastoma cells; remark: listed apart in the source
molecule,measurement,setting,value
lysophosphatidic acid [LPA],length / collapsing of neurites with increasing doses of LPA,[1],linear retraction of the length of the neurites
same,neurites after LPA treatment (retraction or preservation),[1],retraction of the neurites
"CCCC(=O)Nc1ncnc2c1ncn2[C@@H]1O[C@@H]2COP(=O)(O)O[C@H]2[C@H]1OC(=O)CCC [db-cAMP, dibutyril c-AMP]",elongation / length of the neurites,[2],triggers elongation of neurites
"OO [H2O2, hydrogen peroxide]",neurite retraction after hydrogen peroxide treatment,[3],neurites shorten
